Assays:
[1] = system: THP-1 and REH versus 2-Cl-ATP-sensitive KMT2A-r cells; assay: Resazurin-based viability assays of nucleoside analogs in leukemia cell line panel; design: species or system human
Procedure: (§1) The cytotoxicity of drugs was assessed through resazurin-based assays and the inhibitory concentration resulting in 50% reduction of cell survival relative to control (IC50) was calculated as previously described ([7]). In synergy studies, cells were exposed to a dilution series of compounds, as single agents or in combination, in resazurin-based assays (72 hours) as described ([8]–[10]). The occurrence of synergy was determined with the Bliss Independence model as previously described ([8]–[10]). Bliss Prediction curves indicated the predicted percentage viability of the cells when exposed to the combination of compounds if both compounds work additively together. Synergy was visualised as the presence of a lower cell viability upon combination of two compounds compared to the viability predicted based on the presence of an additive effect of the compounds (i.e., the viability curve of the combination runs below the Bliss Prediction curve). The percentage of apoptotic cells was assessed by annexin V and 7-Aminoactinomycin D (7-AAD) (BD Biosciences, Australia) flow cytometry as previously described ([7]).

U937 cells = assay: 72-hour resazurin-based cytotoxicity assay, U937; assay type: cell-based, human; conditions: Homo sapiens, U-937, U937, CALM-AF10, AML
Procedure: (§2) All cell lines used in this study were mycoplasma-free and have been authenticated using STR profiling. Cells were cultured as previously described ([7], [8]). Characteristics of the leukemia cell lines used in this study are described in Supplementary Table 1 . Peripheral blood mononuclear cells from healthy donors were purchased from Australian Red Cross.
as §1, with “The percentage of apoptotic cells was assessed by annexin V and 7-Aminoactinomycin D (7-AAD) (BD Biosciences, Australia) flow cytometry as previously described ([7]).” left out

KP-MO-TS cells = assay: 72-hour resazurin-based cytotoxicity assay, KP-MO-TS; assay type: cell-based, human; conditions: Homo sapiens, CALM-AF10, AML
Procedure: as §2
as §1, with “The percentage of apoptotic cells was assessed by annexin V and 7-Aminoactinomycin D (7-AAD) (BD Biosciences, Australia) flow cytometry as previously described ([7]).” left out

PER-485 cells [2] = assay: 72-hour resazurin-based cytotoxicity assay, PER-485; assay type: cell-based, human; conditions: PER-485, KMT2A-r t(4;11), infant ALL derived
Procedure: as §2, §1

PER-490 cells = assay: 72-hour resazurin-based cytotoxicity assay, PER-490; assay type: cell-based, human; conditions: Homo sapiens, PER-490, KMT2A-r t(4;11), infant ALL
Procedure: as §2
as §1, with “The percentage of apoptotic cells was assessed by annexin V and 7-Aminoactinomycin D (7-AAD) (BD Biosciences, Australia) flow cytometry as previously described ([7]).” left out

THP-1 cells = assay: 72-hour resazurin-based cytotoxicity assay, THP-1; assay type: cell-based, human; conditions: Homo sapiens, THP-1, KMT2A-r t(9;11), infant AML
Procedure: as §2, §1

PER-703 cells = assay: 72-hour resazurin-based cytotoxicity assay, PER-703; assay type: cell-based, human; conditions: Homo sapiens, PER-703, KMT2A-r t(1;11), infant ALL derived
Procedure: as §2
as §1, with “The percentage of apoptotic cells was assessed by annexin V and 7-Aminoactinomycin D (7-AAD) (BD Biosciences, Australia) flow cytometry as previously described ([7]).” left out

PER-785 cells = assay: 72-hour resazurin-based cytotoxicity assay, PER-785; assay type: cell-based, human; conditions: Homo sapiens, PER-785, KMT2A-r t(4;11), infant ALL
Procedure: as §2
as §1, with “The percentage of apoptotic cells was assessed by annexin V and 7-Aminoactinomycin D (7-AAD) (BD Biosciences, Australia) flow cytometry as previously described ([7]).” left out

PER-826 cells = assay: 72-hour resazurin-based cytotoxicity assay, PER-826; assay type: cell-based, human; conditions: Homo sapiens, PER-826, KMT2A-r complex t(11;19), infant ALL
Procedure: as §2
as §1, with “The percentage of apoptotic cells was assessed by annexin V and 7-Aminoactinomycin D (7-AAD) (BD Biosciences, Australia) flow cytometry as previously described ([7]).” left out

KOPN-8 cells = assay: 72-hour resazurin-based cytotoxicity assay, KOPN-8; design: species or system human; conditions: Homo sapiens, KOPN-8, KMT2A-r t(11;19), infant pre-B cell ALL
Procedure: as §2
as §1, with “The percentage of apoptotic cells was assessed by annexin V and 7-Aminoactinomycin D (7-AAD) (BD Biosciences, Australia) flow cytometry as previously described ([7]).” left out

MOLM-13 cells = assay: 72-hour resazurin-based cytotoxicity assay, MOLM-13; assay type: cell-based, human; conditions: Homo sapiens, MOLM-13, KMT2A-r t(9;11), AML
Procedure: as §2, §1

MV4;11 cells = assay: 72-hour resazurin-based cytotoxicity assay, MV4;11; assay type: cell-based, human; conditions: Homo sapiens, MV4;11, KMT2A-r t(4;11), childhood AML
Procedure: as §2
as §1, with “The percentage of apoptotic cells was assessed by annexin V and 7-Aminoactinomycin D (7-AAD) (BD Biosciences, Australia) flow cytometry as previously described ([7]).” left out

SEMK2 cells = assay: 72-hour resazurin-based cytotoxicity assay, SEMK2; design: species or system human; conditions: Homo sapiens, SEMK2, KMT2A-r t(4;11), pre-B cell childhood ALL
Procedure: as §2, §1

RS4;11 cells = assay: 72-hour resazurin-based cytotoxicity assay, RS4;11; design: species or system human; conditions: RS4;11, KMT2A-r t(4;11), pre-B cell ALL
Procedure: as §2, §1

CEM cells = assay: 72-hour resazurin-based cytotoxicity assay, CEM; design: species or system human; conditions: Homo sapiens, CCRF-CEM, KMT2A-wt, childhood T-cell ALL
Procedure: as §2, §1

REH cells = assay: 72-hour resazurin-based cytotoxicity assay, REH; design: species or system human; conditions: Homo sapiens, KMT2A-wt, pre-B cell ALL
Procedure: as §2, §1

Jurkat cells = assay: 72-hour resazurin-based cytotoxicity assay, Jurkat; design: species or system human; conditions: Homo sapiens, KMT2A-wt, childhood T-cell ALL
Procedure: as §2, §1

KELLY cells = assay: 72-hour resazurin-based cytotoxicity assay, KELLY; assay type: cell-based, human; conditions: Homo sapiens, neuroblastoma
Procedure: as §2
as §1, with “The percentage of apoptotic cells was assessed by annexin V and 7-Aminoactinomycin D (7-AAD) (BD Biosciences, Australia) flow cytometry as previously described ([7]).” left out

BE(2)C cells = assay: 72-hour resazurin-based cytotoxicity assay, BE(2)C; assay type: cell-based, human; conditions: Homo sapiens, childhood neuroblastoma
Procedure: as §2
as §1, with “The percentage of apoptotic cells was assessed by annexin V and 7-Aminoactinomycin D (7-AAD) (BD Biosciences, Australia) flow cytometry as previously described ([7]).” left out

HEY cells = assay: 72-hour resazurin-based cytotoxicity assay, HEY; assay type: cell-based, human; conditions: Homo sapiens, ovarian carcinoma
Procedure: as §2
as §1, with “The percentage of apoptotic cells was assessed by annexin V and 7-Aminoactinomycin D (7-AAD) (BD Biosciences, Australia) flow cytometry as previously described ([7]).” left out

27/87 cells = assay: 72-hour resazurin-based cytotoxicity assay, 27/87; assay type: cell-based, human; conditions: Homo sapiens, 27/87, endometrioid ovarian cancer
Procedure: as §2
as §1, with “The percentage of apoptotic cells was assessed by annexin V and 7-Aminoactinomycin D (7-AAD) (BD Biosciences, Australia) flow cytometry as previously described ([7]).” left out

MCF-7 cells = assay: 72-hour resazurin-based cytotoxicity assay, MCF-7; assay type: cell-based, human; conditions: Homo sapiens, MCF7, MCF-7, breast adenocarcinoma
Procedure: as §2
as §1, with “The percentage of apoptotic cells was assessed by annexin V and 7-Aminoactinomycin D (7-AAD) (BD Biosciences, Australia) flow cytometry as previously described ([7]).” left out

H460 cells = assay: 72-hour resazurin-based cytotoxicity assay, H460; assay type: cell-based, human; conditions: Homo sapiens, NCI-H460, H460, lung carcinoma
Procedure: as §2
as §1, with “The percentage of apoptotic cells was assessed by annexin V and 7-Aminoactinomycin D (7-AAD) (BD Biosciences, Australia) flow cytometry as previously described ([7]).” left out

LNCaP cells = assay: 72-hour resazurin-based cytotoxicity assay, LNCaP; assay type: cell-based, human; conditions: Homo sapiens, prostate carcinoma
Procedure: as §2
as §1, with “The percentage of apoptotic cells was assessed by annexin V and 7-Aminoactinomycin D (7-AAD) (BD Biosciences, Australia) flow cytometry as previously described ([7]).” left out

MRC-5 cells = assay: 72-hour resazurin-based cytotoxicity assay, MRC-5; assay type: cell-based, human; conditions: Homo sapiens, MRC5, MRC-5, non-malignant, normal lung
Procedure: as §2, §1

WI-38 cells = assay: 72-hour resazurin-based cytotoxicity assay, WI-38; assay type: cell-based, human; conditions: Homo sapiens, WI-38, non-malignant, normal lung
Procedure: as §2
as §1, with “The percentage of apoptotic cells was assessed by annexin V and 7-Aminoactinomycin D (7-AAD) (BD Biosciences, Australia) flow cytometry as previously described ([7]).” left out

[3] = system: peripheral blood mononuclear cells from healthy donors; assay: 72-hour resazurin-based viability assay, PBMC from healthy donors; assay type: cell-based, human; conditions: Homo sapiens, PBMC, 72 h, 72 h resazurin
Procedure: as §2, §1

[4] = system: KMT2A-r and CALM-AF10 translocated leukemia cell lines; assay: Cytotoxicity in expanded cell line panel (range over sensitive lines); assay type: cell-based; conditions: Homo sapiens; 9 out of 11 KMT2A-r leukemia cell lines
Procedure: as §2
as §1, with “The percentage of apoptotic cells was assessed by annexin V and 7-Aminoactinomycin D (7-AAD) (BD Biosciences, Australia) flow cytometry as previously described ([7]).” left out

PER-485 cells [5] = assay: Annexin V/7-AAD flow cytometry, PER-485; assay type: cell-based, human; conditions: KMT2A-r leukemia cells (PER-485)
Procedure: as §1

[6] = system: KMT2A-r PER-485 and KMT2A-wt REH cells; assay: 72-hour resazurin-based viability assay, PER-485 versus REH; assay type: cell-based, human
Procedure: as §1

Nc1nc(Cl)nc2c1ncn2[C@@H]1O[C@H](CO)[C@@H](O)[C@H]1O [2-CADO, 2-chloroadenosine]
response of 2-Cl-ATP-resistant cell lines THP-1 and REH compared with 2-Cl-ATP-sensitive KMT2A-r cells [1]: less responsive

Nc1nc(Cl)nc2c1ncn2[C@@H]1O[C@H](COP(=O)(O)OP(=O)(O)OP(=O)(O)O)[C@@H](O)[C@H]1O [2-Cl-ATP, 2-chloroadenosine triphosphate]
IC50 (U937 cells): 3.5 µM | IC50 (KP-MO-TS cells): 4.4 µM | IC50 (PER-485 cells [2]; Homo sapiens): 2.5 µM | IC50 (PER-490 cells): 4.5 µM | IC50 (THP-1 cells): > 20 µM | IC50 (PER-703 cells): 4.3 µM | IC50 (PER-785 cells): 3.5 µM | IC50 (PER-826 cells): 2.6 µM | IC50 (KOPN-8 cells): 13.4 µM | IC50 (MOLM-13 cells): 5.6 µM | IC50 (MV4;11 cells): 2.7 µM | IC50 (SEMK2 cells): 5.1 µM | IC50 (RS4;11 cells; Homo sapiens, RS4-11, 72 h): 5.8 µM | IC50 (RS4;11 cells): 5.9 µM | IC50 (CEM cells): 11.4 µM | IC50 (REH cells): > 20 µM | IC50 (Jurkat cells): > 20 µM | IC50 (KELLY cells): > 20 µM | IC50 (BE(2)C cells): > 20 µM | IC50 (HEY cells): > 20 µM | IC50 (27/87 cells): > 20 µM | IC50 (MCF-7 cells): > 20 µM | IC50 (H460 cells): > 20 µM | IC50 (LNCaP cells): 14.9 µM | IC50 (MRC-5 cells): > 20 µM | IC50 (WI-38 cells): > 20 µM | IC50 ([3]; Donor 1): 5.4 µM | IC50 ([3]; Donor 2): 4.8 µM | IC50 ([3]; Donor 3): 4.2 µM | IC50 [4]: 2.5 to 5.9 µM | induction of apoptosis (annexin V/7AAD) (PER-485 cells [5]): inducing apoptosis

CCCCCCCOc1ccc(O)cc1 [AC-45594]
selective cytotoxicity towards KMT2A-r leukemia cells [6]: did not display selective cytotoxicity

CN(C(=O)CN(CCO)CC(=O)N(C)C(C)(C)Cc1ccccc1)C(C)(C)Cc1ccccc1 [Oxethazaine, oxethazaine]
IC50 (PER-485 cells [2]; Homo sapiens): 3.6 µM | IC50 (THP-1 cells): 15 µM | IC50 (MOLM-13 cells): 3.8 µM | IC50 (SEMK2 cells): 8.9 µM | IC50 (RS4;11 cells; Homo sapiens, RS4-11, 72 h): 9 µM | IC50 (CEM cells): 10.6 µM | IC50 (REH cells): 4.9 µM | IC50 (Jurkat cells): 18.9 µM | IC50 (MRC-5 cells): > 20 µM

Nc1nc(Cl)nc2c1ncn2[C@H]1C[C@H](O)[C@@H](CO)O1 [cladribine]
response of 2-Cl-ATP-resistant cell lines THP-1 and REH compared with 2-Cl-ATP-sensitive KMT2A-r cells [1]: less responsive

O=C(O)c1cc2c(cn1)[nH]c1ccccc12 [β-CCB, β-carboline-3-carboxylate]
IC50 (PER-485 cells [2]): 2.6 µM

Reference: article PMC8811472, “Systematic In Vitro Evaluation of a Library of Approved and Pharmacologically Active Compounds for the Identification of Novel Candidate Drugs for KMT2A-Rearranged Leukemia” (Frontiers in Oncology, 2022)
